According to patent US10189796B2, “[4-(1,3,3-trimethyl-2-oxo-3,4-dihydro-1H-quinoxalin-7-yl)phenoxy]ethyloxy compound or salt thereof” (SANTEN PHARMACEUTICAL CO., LTD., priority 2015, dated 2019):

What was measured:
Recombinant human GR = Recombinant human GR (Homo sapiens (Human), UniProt P04150); experiment: GR competitive binding assay by fluorescence polarization; conditions: 20 μM test compound solution, 10 μL/well; 2 hours; DEX positive control; read-out: GR binding rate (%)
Outline: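 Fluorescence polarization competition between test compound and Fluormone GS1 fluorescent glucocorticoid ligand for recombinant human GR. Buffer 10 mM potassium phosphate pH 7.4, 20 mM Na2MoO4, 0.1 mM EDTA, 5 mM DTT, 2% DMSO. 2 h dark incubation at room temperature; binding ratio (%) scaled between buffer-only and DEX controls.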

[1] = test system: MCP-1 production in human monocyte cell (THP-1); experiment: MCP-1 production inhibitory action evaluation test (LPS stimulation, ELISA); assay type: cell-based; conditions: THP-1, LPS, 18 hours
Procedure: In order to evaluate an action of the present compound as a GR agonist, an MCP-1 production inhibitory action in human monocyte cell after stimulation by LPS was investigated. For the measurement of the MCP-1 production amount in the sample, the ELISA method (manufactured by R&D Systems, Cat No. DCP00) was used, and a procedure was carried out according to the protocol attached thereto. Hereinafter, the specific method will be described.
LPS solution: After LPS was dissolved in PBS(−), the solution was diluted with 10% FBS-containing RPMI 1640 to prepare an LPS solution with a 40 μg/mL concentration.
After the test compound was dissolved in dimethylsulfoxide, the solution was diluted with an RPMI medium to prepare 400 μM of a test compound solution. The solution was diluted with a 4% dimethylsulfoxide-containing RPMI 1640 medium to prepare 40 μM of a test compound solution.
Used cells: human monocyte cell (THP-1) (ATCC)
• 1) Subcultured THP-1 was recovered and centrifuged at 1,100 rpm for 5 minutes to give a cell sediment. • 2) An RPMI medium (RPMI 1640 containing 10% FBS, 100 U/mL of penicillin, 100 μg/mL of streptomycin, 55 μM of 2-Mercaptoethanol, 10 ng/mL of human EGF, and 40 μg/mL of gentamicin) was added. • 3) The above suspension was seeded in a culture flask and cultured in a CO2 incubator (temperature: 37° C., CO2 concentration: 5%). The cells continued to subculture according to this method were used for the test. (Test Method and Measurement Method) • 1) The subcultured THP-1 was recovered and the cells were each seeded at 1.9×10^5 cells/0.19 mL/well in a 96-well round bottom culture plate. • 2) The test compound solution was added with each 5 μL/well and cultured for 2 hours. • 3) LPS solution was added with each 5 μL/well. • 4) The sample to which 4% dimethylsulfoxide-containing RPMI medium was added with each 5 μL/well in place of each test compound solution, and 10% FBS-RPMI 1640 was added with each 5 μL/well in place of the LPS solution was made a negative control. • 5) The sample to 4% dimethylsulfoxide-containing RPMI medium was added with each 5 μL/well in place of each test compound solution was made a positive control. • 6) After completion of 18 hours cultivation, the supernatant was recovered and the amount of MCP-1 released in the supernatant was measured by using an ELISA Kit. • 7) The MCP-1 production inhibitory ratio was calculated according to the following calculation formula. (Calculation of MCP-1 Production Inhibitory Ratio)
MCP-1 production inhibitory ratio (%) was calculated by the following formula. […]

Chain of Recombinant human GR (P04150 whole entry): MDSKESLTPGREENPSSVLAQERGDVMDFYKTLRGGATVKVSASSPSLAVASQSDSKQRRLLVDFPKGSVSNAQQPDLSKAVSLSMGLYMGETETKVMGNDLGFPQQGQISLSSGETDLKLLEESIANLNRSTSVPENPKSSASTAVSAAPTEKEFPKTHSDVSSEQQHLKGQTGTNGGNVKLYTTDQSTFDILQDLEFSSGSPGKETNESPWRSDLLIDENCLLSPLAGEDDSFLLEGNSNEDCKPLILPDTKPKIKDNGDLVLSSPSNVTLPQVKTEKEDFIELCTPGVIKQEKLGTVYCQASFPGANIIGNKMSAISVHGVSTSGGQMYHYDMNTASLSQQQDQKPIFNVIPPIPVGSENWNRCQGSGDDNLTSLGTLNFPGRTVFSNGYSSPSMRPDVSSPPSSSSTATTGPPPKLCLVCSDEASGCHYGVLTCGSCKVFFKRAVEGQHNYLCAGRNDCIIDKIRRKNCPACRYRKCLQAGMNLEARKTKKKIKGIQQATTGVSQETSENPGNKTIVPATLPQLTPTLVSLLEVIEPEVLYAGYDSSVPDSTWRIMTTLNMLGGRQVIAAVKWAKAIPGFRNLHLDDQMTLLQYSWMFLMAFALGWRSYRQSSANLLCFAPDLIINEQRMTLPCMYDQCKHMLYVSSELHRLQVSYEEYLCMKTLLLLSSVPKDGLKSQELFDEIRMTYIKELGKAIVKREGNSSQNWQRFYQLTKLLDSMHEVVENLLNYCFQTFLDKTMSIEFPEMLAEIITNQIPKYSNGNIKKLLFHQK

| Compound | inhibition at 10 µM (Recombinant human GR) [%] | MCP-1 production inhibitory ratio (% of 1 μM) [1] [%] |
| --- | --- | --- |
| COc1cc(OC[C@H](C)O)ccc1-c1ccc2c(c1COc1cc(F)ccc1C)N(C)C(=O)C(C)(C)N2 [Compound 1-1, (S)-8-(5-fluoro-2-methylphenoxymethyl)-7-[4-(2-hydroxypropyl)oxy-2-methoxy-phenyl]-1,3,3-trimethyl-3,4-dihydro-1H-quinoxalin-2-one] | > 99 | – |
| COc1ccc(O)cc1-c1ccc2c(c1COc1cc(F)ccc1C)N(C)C(=O)C(C)(C)N2 [Control compound C, 8-(5-fluoro-2-methylphenoxymethyl)-7-(5-hydroxy-2-methoxyphenyl)-1,3,3-trimethyl-3,4-dihydro-1H-quinoxalin-2-one] | > 99 | 65 |
| COCOc1ccc(-c2ccc3c(c2COc2cc(F)ccc2C)N(C)C(=O)C(C)(C)N3)c(OC)c1 [Control compound F, 8-(5-fluoro-2-methylphenoxymethyl)-7-(2-methoxy-4-methoxymethoxyphenyl)-1,3,3-trimethyl-3,4-dihydro-1H-quinoxalin-2-one, reference compound] | 94 | 27 |
| CCCC(=O)Oc1ccc(-c2ccc3c(c2COc2cc(F)ccc2C)N(C)C(=O)C(C)(C)N3)c(OC)c1 [Control compound D, 7-(4-butyryloxy-2-methoxyphenyl)-8-(5-fluoro-2-methylphenoxymethyl)-1,3,3-trimethyl-3,4-dihydro-1H-quinoxalin-2-one, reference compound] | 98 | – |
| COc1ccc(-c2ccc3c(c2COc2cc(F)ccc2C)N(C)C(=O)C(C)(C)N3)c(OC)c1 [Control compound E, 7-(2,4-dimethoxyphenyl)-8-(5-fluoro-2-methyl-phenoxymethyl)-1,3,3-trimethyl-3,4-dihydro-1H-quinoxalin-2-one, reference compound] | 98 | 40 |
| COc1cc(OC[C@@H](O)CC#N)ccc1-c1ccc2c(c1COc1cc(F)ccc1C)N(C)C(=O)C(C)(C)N2 [Compound 5-2, (S)-7-[4-(3-cyano-2-hydroxypropyl)oxy-2-methoxyphenyl]-8-(5-fluoro-2-methyl-phenoxymethyl)-1,3,3-trimethyl-3,4-dihydro-1H-quinoxalin-2-one] | > 99 | – |
| COc1cc(OC[C@@H](O)CCO)ccc1-c1ccc2c(c1COc1cc(F)ccc1C)N(C)C(=O)C(C)(C)N2 [Compound 2-1, (S)-7-[4-(2,4-dihydroxybutyl)oxy-2-methoxyphenyl]-8-(5-fluoro-2-methyl-phenoxymethyl)-1,3,3-trimethyl-3,4-dihydro-1H-quinoxalin-2-one] | > 99 | – |
| COc1cc(OC[C@H](C)OC(=O)CN(C)C)ccc1-c1ccc2c(c1COc1cc(F)ccc1C)N(C)C(=O)C(C)(C)N2 [Compound 11-1, (S)-7-[4-[2-(N,N-dimethylaminoacetoxy)propyl]oxy-2-methoxyphenyl]-8-(5-fluoro-2-methylphenoxymethyl)-1,3,3-trimethyl-3,4-dihydro-1H-quinoxalin-2-one] | 99 | 88 |
| COc1ccc(CO)cc1-c1ccc2c(c1COc1cc(F)ccc1C)N(C)C(=O)C(C)(C)N2 [Control compound B, 8-(5-fluoro-2-methylphenoxymethyl)-7-(5-hydroxymethyl-2-methoxyphenyl)-1,3,3-trimethyl-3,4-dihydro-1H-quinoxalin-2-one, reference compound] | > 99 | – |
